From patent US3971737A, “[2-Methyl-Ala^6 ]LRH” (American Home Products Corporation, priority 1975, dated 1976)
Where “and” joins values, the source holds several entries; their conditions need not be identical. Equal entries are not always repeated. Entries after “also recorded” stand apart in the source; their conditions may differ.

Assays:
[1] = tested on: luteinizing hormone (LH) in the blood serum of ovariectomized rats; assay: LH release in ovariectomized rats pretreated with estradiol and progesterone; serum LH by radioimmunoassay; type: in vivo, rat
Description: This fact was established, in vivo, by measuring the increase of LH (before and after administration of [2-methyl-Ala^6 ]LRH) in the blood serum of ovariectomized rats pretreated with estradiol and progesterone according to the procedure of Schally et al., J. Biol. Chem. 246, 7230 (1971). The LH concentration in the blood serum was determined by radioimmunoassy according to the procedure of Berson et al., Metabolism 13, 1135 (1964). The results of this test are as follows: Dose nanograms ng LH/ml Serum % Dif- (ng) Animal No. Pre Post erence ______________________________________ 10 1 404.92 932.87 […] 10 2 541.37 1062.03 96.17 10 3 441.25 1568.03 255.43 10 4 459.07 1082.72 135.85 10 5 759.11 1681.84 111.52 No. of observations 5 5 5 Mean 523.34 1265.56 145.87 Standard error 70.34 150.08 28.28 T-value 5.1586 P-value 0.0080 ______________________________________

[2] = tested on: Sprague-Dawley rats (pregnancy); conditions: found by Alan Corbin (copending application Ser. No. 561,524), cited from earlier work

## CC(C)C[C@H](NC(=O)C(C)(C)NC(=O)[C@H](Cc1ccc(O)cc1)NC(=O)[C@H](CO)NC(=O)[C@H](Cc1c[nH]c2ccccc12)NC(=O)[C@H](Cc1c[nH]cn1)NC(=O)[C@@H]1CCC(=O)N1)C(=O)N[C@@H](CCCNC(=N)N)C(=O)N1CCC[C@H]1C(=O)NCC(N)=O [[2-methyl-Ala^6]LRH, L-(5-oxoprolyl)-L-histidyl-L-tryptophyl-L-seryl-L-tyrosyl-2-methylalanyl-L-leucyl-L-arginyl-L-prolylglycinamide]
[1]; dose 10 ng, mean of 5 ovariectomized, estradiol/progesterone-pretreated rats, after administration (pre mean 523.34), standard error 150.08
  ng LH/ml Serum, Post (Mean): 1265.56 ng LH/ml
[1]; dose 10 ng, mean of 5 rats, standard error 28.28, P-value 0.0080
  % Difference of serum LH, pre vs post (Mean): 145.87%
[1]; dose 10 ng, single animals 1 to 5 in order
  % Difference of serum LH, pre vs post (individual animals No. 1-5): 255.43% and 135.85% and 111.52% and 103.38% and 96.17%
[1]; dose 10 ng, single animals 1 to 5 in order, after administration
  ng LH/ml Serum, Post (individual animals No. 1-5): 932.87 ng LH/ml and 1062.03 ng LH/ml and 1568.03 ng LH/ml and 1082.72 ng LH/ml and 1681.84 ng LH/ml
[1]; in vivo, ovariectomized rats pretreated with estradiol and progesterone
  LH-releasing / LRH agonist activity (in words): active releaser of luteinizing hormone (LH); also recorded: active LRH agonist
[2]; 500 micrograms per day
  pregnancies prevented: 100%
[2]
  claudogenic/interceptive activity (in words): active claudogenic/interceptive agent
